From ChEMBL document CHEMBL5233262, “Anti-inflammatory activity of naturally occuring diarylheptanoids - A review” (Bioorg Med Chem, 2021) come the findings set out here.

Converted amounts (≈) assume the structure as drawn.

The test system of assay [1] is J774.1. The assay is described as follows: Antiinflammatory activity in mouse J774.1 cells assessed as inhibition of LPS-induced NO production at 10 microg/ml incubated for 48 hrs by Griess reagent based analysis. It is filed as functional. Background: The Griess reaction detects nitrite, a stable product of nitric oxide.
In assay [2] the test system is Zingiber officinale. The assay is described as follows: Inhibition of prostaglandin biosynthesis in ginger. It is filed as functional, organism-based.
Assay [3] concerns HUVEC. The assay is described as follows: Antiinflammatory activity in human HUVEC cells assessed as inhibition of IL-1beta induced VCAM-1 expression at 1 to 50 uM preincubated for 2 hrs followed by IL-1beta stimulation and measured after 8 hrs by ELISA. It is filed as functional. As to conditions: dose 1-50 µM, time 10 hrs.
The subject of assay [4] is Mus musculus. The assay is described as follows: Antiinflammatory activity in ICR mouse model of TPA-induced ear edema assessed as inhibition of ear inflammation at 20 uM,TOP for 30 mins followed by TPA addition and measured after 5 hrs. It is filed as functional. As to conditions: 5.5 h, time 330 min.
Assay [5] can be described thus: Inhibition of COX in bovine seminal vesicle assessed as reduction in PGE2 production using arachidonic acid as substrate. In kind it is tissue-based, Bos taurus.
Assay [6] concerns the target T1, Polyunsaturated fatty acid 5-lipoxygenase (Homo sapiens, UniProt P09917).
T1 sequence (P09917 whole entry): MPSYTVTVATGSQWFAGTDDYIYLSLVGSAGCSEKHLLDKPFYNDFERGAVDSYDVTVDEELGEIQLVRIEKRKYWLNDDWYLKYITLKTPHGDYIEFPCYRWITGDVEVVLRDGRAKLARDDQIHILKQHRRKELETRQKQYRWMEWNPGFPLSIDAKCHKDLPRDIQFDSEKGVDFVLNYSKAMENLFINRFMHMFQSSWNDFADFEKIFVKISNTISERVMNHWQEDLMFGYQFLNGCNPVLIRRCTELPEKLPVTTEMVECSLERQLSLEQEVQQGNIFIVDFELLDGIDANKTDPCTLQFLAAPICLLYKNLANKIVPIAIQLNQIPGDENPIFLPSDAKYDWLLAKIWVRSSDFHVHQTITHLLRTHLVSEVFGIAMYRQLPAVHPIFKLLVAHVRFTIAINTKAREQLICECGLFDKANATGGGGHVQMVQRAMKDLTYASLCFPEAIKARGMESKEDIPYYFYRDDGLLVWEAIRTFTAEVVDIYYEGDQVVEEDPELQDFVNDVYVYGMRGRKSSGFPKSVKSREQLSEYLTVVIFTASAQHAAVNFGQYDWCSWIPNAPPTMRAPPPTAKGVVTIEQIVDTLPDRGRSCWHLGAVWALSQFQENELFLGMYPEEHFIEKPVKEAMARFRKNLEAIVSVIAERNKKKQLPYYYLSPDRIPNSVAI
The assay is described as follows: Inhibition of 5-LOX in human neutrophils assessed as reduction in 5-HETE formation preincubated for 5 mins followed by arachidonic acid and A23187 addition and measured after 5 mins by RP-HPLC analysis. In kind it is cell-based, Neutrophil.

The test system of assay [7] is HUVEC. The assay is described as follows: Antiinflammatory activity in human HUVEC cells assessed as inhibition of IL-1beta induced ICAM-1 expression at 1 to 50 uM preincubated for 2 hrs followed by IL-1beta stimulation and measured after 8 hrs by ELISA. In kind it is functional. As to conditions: dose 1-50 µM, time 10 hrs. On the technique in general: ELISA stands for enzyme-linked immunosorbent assay.

In assay [8] the test system is HUVEC. The assay is described as follows: Antiinflammatory activity in human HUVEC cells assessed as inhibition of TNFalpha-induced ICAM-1 expression at 1 to 50 uM preincubated for 2 hrs followed by TNFalpha stimulation and measured after 8 hrs by ELISA. It is filed as functional. As to conditions: dose 1-50 µM, time 10 hrs.
Assay [9] concerns HUVEC. The assay is described as follows: Antiinflammatory activity in human HUVEC cells assessed as inhibition of TNFalpha-induced VCAM-1 expression at 1 to 50 uM preincubated for 2 hrs followed by TNFalpha stimulation and measured after 8 hrs by ELISA. It is filed as functional. To be noted: dose 1-50 µM, time 10 hrs.
Assay [10] deals with RAW264.7. The assay is described as follows: Antiinflammatory activity in mouse RAW264.7 cells assessed as inhibition of LPS-induced iNOS expression at 5 ug/ml. It is filed as functional.
Assay [11] concerns Mus musculus. The assay is described as follows: Antiinflammatory activity in TPA-induced ear edema ICR mouse model assessed as inhibition of ear inflammation at 1 ug, TOP for 30 mins followed by TPA addition and measured after 6 hrs. In kind it is functional. As to conditions: dose 1 µg, time 390 min, 6.5 h.
The subject of assay [12] is RAW264.7. The assay is described as follows: Antiinflammatory activity in mouse RAW264.7 cells assessed as inhibition of LPS-induced TNFalpha expression at 5 ug/ml. In kind it is functional.
For assay [13], the system named is RAW264.7. The assay is described as follows: Antiinflammatory activity in mouse RAW264.7 cells assessed as inhibition of LPS-induced IL-1beta expression at 5 ug/ml. It is filed as functional.
Assay [14] deals with RAW264.7. The assay is described as follows: Antiinflammatory activity in mouse RAW264.7 cells assessed as inhibition of LPS-induced NO production. In kind it is functional, cell-based.
Assay [15] has as its system RAW264.7. The assay is described as follows: Antiinflammatory activity in mouse RAW264.7 cells assessed as inhibition of LPS-induced COX-2 expression at 5 ug/ml. In kind it is functional.
Assay [16] has as its system RAW264.7. The assay is described as follows: Antiinflammatory activity in mouse RAW264.7 cells assessed as inhibition of LPS-induced NF-kappaB expression at 5 ug/ml. In kind it is functional.
The test system of assay [17] is Rattus norvegicus. The assay is described as follows: Antiinflammatory activity against Freund's complete adjuvant-induced arthritic Wistar rat model assessed as reduction in IL-1beta level at 5 mg/kg,po measured after 28 days by ELISA. It is filed as functional. The arrangement: scale not given: the % may be the effect or the level left. As to conditions: time 28 day.

Assay [18] relates to Rattus norvegicus. The assay is described as follows: Antiinflammatory activity against Freund's complete adjuvant-induced arthritic Wistar rat model assessed as reduction in TNF-alpha level at 5 mg/kg,po measured after 28 days by ELISA. It is filed as functional. The arrangement: scale not given: the % may be the effect or the level left. As to conditions: time 28 day.
Assay [19] deals with Rattus norvegicus. The assay is described as follows: Antiinflammatory activity against Freund's complete adjuvant-induced arthritic Wistar rat model assessed as reduction in IL-6 level at 5 mg/kg,po measured after 28 days by ELISA. More on the design: scale not given: the % may be the effect or the level left. It is filed as functional. To be noted: time 28 day.
In assay [20] the test system is Rattus norvegicus. The assay is described as follows: Antiinflammatory activity in Wistar rat model of carrageenan-induced paw edema assessed as reduction in paw thickness at 10 mg/kg,po and measured after 5 hrs. The arrangement: scale not given: the % may be the effect or the level left. In kind it is functional. (The carrageenan paw model is a standard test of acute inflammation.)

The test system of assay [21] is Rattus norvegicus. The assay is described as follows: Antiinflammatory activity against Freund's complete adjuvant-induced arthritic Wistar rat model assessed as reduction in paw volume at 5 mg/kg,po measured after 28 days. In kind it is functional. The arrangement: scale not given: the % may be the effect or the level left. To be noted: time 28 day.
Assay [22] relates to Hep 3B2. The assay is described as follows: Antiinflammatory activity in human Hep3B cells assessed as inhibition of IL-6 stimulated CRP mRNA expression at 30 uM preincubated for 60 mins followed by IL-6 stimulation and measured after 20 mins by RT-PCR analysis. In kind it is functional. As to conditions: 1.333 h, time 80 min.
For assay [23], the system named is Hep 3B2. The assay is described as follows: Antiinflammatory activity in human Hep3B cells assessed as inhibition of IL-6 stimulated ICAM-1 mRNA expression at 30 uM preincubated for 60 mins followed by IL-6 stimulation and measured after 20 mins by RT-PCR analysis. To be noted: 1.333 h, time 80 min. In kind it is functional.
The test system of assay [24] is Hep 3B2. The assay is described as follows: Antiinflammatory activity in human Hep3B cells assessed as inhibition of IL-6 stimulated IL-1beta mRNA expression at 30 uM preincubated for 60 mins followed by IL-6 stimulation and measured after 20 mins by RT-PCR analysis. In kind it is functional. To be noted: 1.333 h, time 80 min.
Assay [25] has as its system Hep 3B2. The assay is described as follows: Antiinflammatory activity in human Hep3B cells assessed as inhibition of IL-6 stimulated SOCS3 mRNA expression at 30 uM preincubated for 60 mins followed by IL-6 stimulation and measured after 20 mins by RT-PCR analysis. It is filed as functional. As to conditions: 1.333 h, time 80 min.

`COc1cc(O)c([C@H]2C[C@H](CCc3ccc(O)cc3)O[C@@H](c3ccc(O)cc3)[C@H]2O)c(O)c1C(=O)/C=C/c1ccc(O)cc1`: the inhibition at 10 µg/mL in assay [1] was 37.6%.
Regarding `COc1cc(/C=C/C(=O)CCCCc2ccccc2)ccc1O`, the IC50 in [2] is 2.3 µM; in assay [5] it was 23 µM; in assay [6] it was 4 µM. The “inhibition (INH)” value in assay [3], in assay [7], in assay [8] and in assay [9] was 0% throughout. The inhibition in vivo at 20 µM in assay [4] came to 52%.
As to `O=C(/C=C/CCc1ccc(O)cc1)CCc1ccccc1`, the inhibition at 5 µg/mL is 69% in assay [10]; 71% in assay [12]; 70% in [13]; 69% in [15]; 50% in [16]. Moreover, the ID50 in assay [11] amounted to 0.8 µmol. In assay [14], the IC50 was 5 µg/mL (≈ 17.8 µM).
For the compound `O=C(O)Cc1ccccc1Nc1c(Cl)cccc1Cl` [DICLOFENAC], the Activity is recorded as 7% in [17]; 47% in assay [18]; 2.5% in assay [19]; 39.5% in assay [20]; 28.3% in [21].
On to `COc1ccc(/C=C/C(C[C@H](O)CCc2ccc(OC)c(OC)c2)OC)cc1OC` (stereo not given in full), for which the inhibition at 30 µM in assay [22] was 91%; in assay [23], 76%; in [24], 91%; in [25] it was 91%.

Broadly, the inhibition is the drop in the measured response relative to a control, in per cent. Broadly, the IC50 is the midpoint of a concentration-inhibition curve. The term inhibition in vivo denotes the drop in the measured response relative to a control, in per cent.
